The text below walks through data of US20030113263A1, “Methods and reagents for using mammalian melanocortin receptor antagonists to treat cachexia” (Oregon Health and Sciences University, a non-profit …, priority 2001, published 2003).

The target of assay [1] is T1, human MC-4 melanocortin receptor (Homo sapiens, UniProt P32245). In words: intracellular cAMP accumulation (adenylate cyclase coupling) in transfected human 293 cells. Format: cell-based. Further details: expressed in transfected cells. The settings on record: 293 cells expressing human MC-4 receptor, 45 min at 37° C. A general note: cAMP levels reflect the balance of adenylyl cyclase and phosphodiesterase activity.
Target sequence in this assay (P32245 whole entry): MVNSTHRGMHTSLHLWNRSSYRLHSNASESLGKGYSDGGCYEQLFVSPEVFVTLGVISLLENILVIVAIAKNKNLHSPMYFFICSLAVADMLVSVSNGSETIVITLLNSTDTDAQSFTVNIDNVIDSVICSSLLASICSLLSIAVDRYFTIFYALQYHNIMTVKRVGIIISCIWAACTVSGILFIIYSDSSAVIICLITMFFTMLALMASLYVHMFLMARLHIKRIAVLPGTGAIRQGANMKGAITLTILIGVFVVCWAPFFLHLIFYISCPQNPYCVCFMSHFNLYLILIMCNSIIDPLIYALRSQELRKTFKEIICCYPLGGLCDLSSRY
Method: Melanocortin receptor coupling to G-proteins in cells expressing the MC-4 melanocortin receptor was used analyze expression of the receptor in cell colonies transfected with the expression vectors described herein as follows. Cells (˜1×10^6) were plated in 6-well dishes, washed once with DMEM containing 1% bovine serum albumin (BSA) and 0.5mM IBMX (a phosphodiesterase inhibitor), then incubated for 45 minutes at 37° C. with varying concentrations of the melanotropic peptides. Following hormone treatment, the cells were washed twice with phosphate buffered saline and intracellular cAMP extracted by lysing the cells with 1 ml of 60% ethanol.

The target in assay [2] is T1, human MC-4 melanocortin receptor. In words: cell-based or functional assay.
Target sequence in this assay (P32245 other isoform, or with tags, fused parts or gaps): as the sequence (P32245 whole entry) above, with E42A, V65E, V103I, S109R, I169S, M215L, C318S, C319S counted along it
The test system of assay [3] is LPS-induced anorexia and fever in rats. The settings on record: central administration; cited from earlier work.
Assay [4] deals with T1, human MC-4 melanocortin receptor. Kind of assay: antagonism of agonist-induced cAMP elevation, Schild analysis. Format: cell-based. Also on record: expressed in transfected cells. The settings on record: agouti peptide approx. 60% pure; results not shown.
Target sequence in this assay (P32245 whole entry): as the sequence (P32245 whole entry) above

In general, EC50 refers to the concentration needed to bring the measured effect to its halfway point. The low end stands for a more potent agent, the high end for a less potent agent. On to `CSCC[C@H](N)C(=O)N[C@@H](CCC(=O)O)C(=O)N[C@@H](Cc1c[nH]cn1)C(=O)N[C@@H](Cc1ccccc1)C(=O)N[C@@H](CCCNC(=N)N)C(=O)N[C@@H](Cc1c[nH]c2ccccc12)C(=O)NCC(=O)O` [ACTH4-10], for which the half-maximal effective concentration (EC50) in assay [1] was greater than 100 nM. In assay [2], “ACTH1-39 (from UniProt P01189 138-176) (peptide)” came in with an Ec50 (adenylate cyclase activity, intracellular cAMP accumulation in transfected 293 cells) of 0.68 nM.

“ACTH4-10 (from UniProt P01189) (peptide)”: the Ec50 (adenylate cyclase activity, intracellular cAMP accumulation in transfected 293 cells) in assay [2] was greater than 100 nM. In the case of “Ac-Nle^4-cyclo(Asp^5, D-Nal(2)^7, Lys^10) αMSH-(4-10)-amide [SHU9119]”, in assay [3], the “effect on LPS-induced fever” value is recorded as “increased” and the “effect on LPS-induced suppression of food intake” value was “reversal of LPS-induced anorexia”.

As to “α-melanocyte stimulating hormone [α-MSH]”, in assay [3], the “effect on LPS-induced fever” value is given as “reduced” and the “effect on LPS-induced suppression of food intake” value is listed as “significant potentiation of the suppressive effects of LPS on food intake”. For the molecule “γ2-MSH (from UniProt P01189 77-88) (peptide)”, in assay [2], the Ec50 (adenylate cyclase activity, intracellular cAMP accumulation in transfected 293 cells) is greater than 100 nM.

B1: agouti: murine agouti peptide produced using a baculovirus system, approximately 60% pure (protein)
chain: HLALEETLGDDRSLRSNSSMNSLDFSSVSIVALNKKSKKISRKEAEKRKRSSKKKASMKKVARPPPPSPCVATRDSCKPPAPACCDPCASCQCRFFGSACTCRVLNPNC
For the molecule B1, the “competition of α-MSH activation of human MC-4 melanocortin receptors” value in assay [4] is reported as “Specific competition”.
